Data set [1] relates to RCC cell lines (JOHW, SAUJ, STAR, RENCA). As to the kind of experiment: apoptosis by Annexin-V and 7-AAD staining. The data set is classed as cell-based, human and murine. The conditions noted are these: Depsipeptide 25 ng/ml or Velcade 10 nM, 6-40 hours. As to the method: (§1) Level of apoptosis was evaluated by Annexin-V and 7-AAD staining (upper left chart). Expression of MHC class I was evaluated by flow cytometry by HLA-ABC for human RCC and H-2Dd/Kd for murine RCC (lower left chart). […] Cells were labeled with ^3H thymidine for analysis of proliferation (upper right chart).

For the next data set, the system named is human and murine RCC. Kind of data set: 3H thymidine proliferation. The data set is classed as cell-based. As to conditions: various concentrations, 72 hours. The protocol: as §1
The subject of data set [2] is human renal cell carcinoma (RCC) cell lines JOHW, SAUJ, STAR. Kind of data set: NK cell susceptibility assay of pre-sensitized human RCC cell lines. The data set is classed as cell-based. As to conditions: for autologous NK cell susceptibility of human RCC SAUJ or STAR (FIG. 11): 24 hours, 25 ng/ml Depsipeptide or 10 nM Velcade; for allogeneic NK cell susceptibility of human RCC (FIG. 9) / autologous NK cell susceptibility of human RCC (FIG. 10): JOHW, 10 nM Velcade or 25 ng/ml Depsipeptide, 40 hours, 4 hour assay. As to the method: Cells were thereafter labeled with ^51Cr for 1 hour and tested for susceptibility to allogeneic NK cell mediated lysis in a standard 4 hour assay.
Cells were thereafter labeled with ^51Cr for 1 hour and tested for susceptibility to autologous NK cell mediated lysis in a standard 4 hour assay.
Thereafter, the tumor cells were tested for NK cell susceptibility in a standard cytotoxicity assay. Autologous NK cells were purified from peripheral blood by negative magnetic bead depletion of T cells, B cells, monocytes and granulocytes. NK cell purity was evaluated by CD56 and CD3 staining by flow cytometry. Purity of NK cells was always between 90-100%.

In data set [3] the test system is human RCC cell lines (JOHW, PORJC, SAUJ and STAR). The data set is classed as cell-based.
Protocol: (§2) Cells were then plated in a 96-well plate at 4,000 cell/well. Recombinant TRAIL [75-300 ng/ml] or recombinant Fas-ligand [12.5-100 ng/ml] was added to the cells and supernatant was harvested after 16 hours incubation. The level of lysis by TRAIL and Fas-ligand were calculated based on spontaneous and maximum ^51Cr release.
For data set [4] the test system is unchanged. It counts as cell-based. The source holds these as a separate data set.
Protocol: as §2
Data set [5] deals with MIC-A/B. The conditions noted are these: cited from earlier work.
Another data set relates to tumors. As to conditions: mouse, in vivo; cited from earlier work.
Data set [6] deals with MIC-A/B. As to the kind of experiment: MIC-A/B expression by flow cytometry. It counts as cell-based, human. As to conditions: Depsipeptide 25 ng/ml or Velcade 10 nM, 6-40 hours.
The test system of the next data set is MHC class I. Kind of data set: MHC class I expression by flow cytometry. The data set is classed as cell-based, human and murine. As to conditions: Depsipeptide 25 ng/ml or Velcade 10 nM, 6-40 hours. As to the method:
as §1
In general terms: Flow cytometry measures light scatter and fluorescence of single cells or particles in a stream.

The next data set concerns RENCA tumor cells. As to the kind of experiment: NK cell susceptibility assay of pre-sensitized RENCA tumor cells. It counts as cell-based, murine. The conditions noted are these: for NK cell susceptibility of RENCA (FIG. 8): 14 hours, 10 nM Velcade or 25 ng/ml Depsipeptide, autologous Balb/c NK cells, 4 hour assay; for susceptibility of RENCA tumor cells to NK cell mediated lysis (FIG. 7): pretreated 40 hours, Depsipeptide 25 ng/ml or Velcade 10 nM, NK cells from B10.d2 mouse. The protocol:
Thereafter, the tumor cells were tested for NK cell susceptibility in a standard cytotoxicity assay. NK cells were purified from splenocytes from a B 10.d2 mouse by negative magnetic bead depletion of T cells, B cells, monocytes and granulocytes. NK cell purity was evaluated by DX5 and CD3 staining by flow cytometry. Purity of NK cells was always between 90-100%.
Cells were thereafter labeled with ^51Cr for 1 hour and tested for susceptibility to NK cell mediated lysis in a standard 4 hour assay. Murine autologous Balb/c NK cells tested against untreated (squares), Velcade (circles) or Depsipeptide (triangles) treated RENCA cell lines (Balb/c in origin).

For the next data set, the system named is HDAC. As to conditions: cited from earlier work.
Another data set concerns neoplastic cells. The conditions noted are these: by reducing levels of c-FLIP; cited from earlier work.
For data set [7] the following is noted: while retaining graft-versus-tumor effects; cited from earlier work.

The source of these data is patent US20140086890A1, “COMPOSITIONS AND METHODS FOR TREATING HYPERPROLIFERATIVE DISORDERS” (priority 2004, published 2014).

Structures are written as SMILES.

On to `C/C=C1\NC(=O)[C@H]2CSSCC/C=C/[C@H](CC(=O)N[C@H](C(C)C)C(=O)N2)OC(=O)[C@H](C(C)C)NC1=O` [Depsipeptide], for which the “viability (apoptosis) of RCC cell lines (FIG. 15)” value in data set [1] is on record as “no differences”. The “proliferation of RCC cell lines (FIG. 15)” value in the data set with human and murine RCC is listed as “no differences”. In [2], the “autologous NK cell susceptibility of human RCC SAUJ or STAR (FIG. 11)” value is “enhanced autologous NK cell susceptibility”, the “allogeneic NK cell susceptibility of human RCC (FIG. 9)” value is “enhanced allogeneic NK cell susceptibility” and the “autologous NK cell susceptibility of human RCC (FIG. 10)” value is on record as “enhanced autologous NK cell susceptibility”. Further, the “cell lysis of presensitized RCC cells by Fas ligand (FIG. 14)” value in [3] was “Increased cell lysis”. Besides, in data set [4], the “cell lysis of presensitized RCC cells by TRAIL (FIG. 13)” value was “Increased cell lysis”. Also, in the data set on MIC-A/B [5], the MIC-A/B upon treatment entry is on record as “induction”. Further, the “anti-tumor effects: cell growth and formation of tumors in mice models” value in the data set on tumors was “anti-tumor effects”. For the same molecule, the “MIC-A/B expression of human RCC (FIG. 15)” value with MIC-A/B [6] is “no differences”. Also, the “MHC Class I expression of RCC cell lines (FIG. 15)” value with MHC class I is “no differences”. Besides, in the data set on RENCA tumor cells, the “NK cell susceptibility of RENCA (FIG. 8)” value is recorded as “enhanced NK cell susceptibility” and the “susceptibility of RENCA tumor cells to NK cell mediated lysis (FIG. 7)” value is reported as “more susceptible”.
`C/C=C1\NC(=O)[C@H]2CSSCC/C=C/[C@H](CC(=O)N[C@H](C(C)C)C(=O)N2)OC(=O)[C@H](C(C)C)NC1=O` [FR901228]: in the data set on HDAC, the “concentrations at which HDAC activity is inhibited” value is listed as “micromolar concentrations”.
Turning to `CC(C)C[C@H](NC(=O)[C@H](Cc1ccccc1)NC(=O)c1cnccn1)B(O)O` [PS-341], the “sensitization of neoplastic cells to TRAIL-mediated apoptosis” value in the data set on neoplastic cells is reported as “sensitizes”.
On to `CC(C)C[C@H](NC(=O)[C@H](Cc1ccccc1)NC(=O)c1cnccn1)B(O)O` [Velcade], for which the “viability (apoptosis) of RCC cell lines (FIG. 15)” value in data set [1] is “no differences”. Further, the acute graft-versus-host disease entry in data set [7] is “inhibits”. Further, in the data set on human and murine RCC, the “proliferation of RCC cell lines (FIG. 15)” value is “no differences”. Also, in data set [2], the “autologous NK cell susceptibility of human RCC SAUJ or STAR (FIG. 11)” value is listed as “enhanced autologous NK cell susceptibility”, the “allogeneic NK cell susceptibility of human RCC (FIG. 9)” value is listed as “enhanced allogeneic NK cell susceptibility” and the “autologous NK cell susceptibility of human RCC (FIG. 10)” value is reported as “enhanced autologous NK cell susceptibility”. Further, the “MHC Class I expression of RCC cell lines (FIG. 15)” value in the data set with MHC class I is listed as “no differences”. In addition, in the data set on RENCA tumor cells, the “NK cell susceptibility of RENCA (FIG. 8)” value was “enhanced NK cell susceptibility” and the “susceptibility of RENCA tumor cells to NK cell mediated lysis (FIG. 7)” value is given as “more susceptible”.
